The source of these data is patent publication US20120083013A1, “GLUCOSYLTRANSFERASE SPECIFIC TO POSITION-4 OF FUROFURAN-TYPE LIGNAN, AND POLYNUCLEOTIDE ENCODING SAME” (Suntory Holdings Limited, priority 2009, published 2012).

Experiment [1] concerns RengUGT13. The experiment is described as follows: glucosyltransferase reaction of recombinant RengUGT13 with lignan (HPLC, LC-MS of the product). Particulars: 1 mM UDP-glucose, 100 μM glycosyl acceptor substrate, pH 7.5, 30° C., one hour. In kind it is biochemical, Forsythia koreana. On the procedure:
To clarify the biochemical functions of the enzymes, the two enzymes were expressed in Escherichia coli. Using the plasmid for two RengUGT Escherichia coli expression obtained above, Escherichia coli BL21 (DE3) strain was transformed in a conventional manner. The resulting transformants were shake cultured in 4 ml of LB medium (10 g/l tryptone peptone, 5 g/l yeast extract, 1 g/l NaCl) containing 50 μg/ml of ampicillin at 37° C. overnight. When the cells reached the stationary phase, 4 ml of the culture broth was inoculated onto 80 ml of fresh medium of the same composition, followed by shake culture at 37° C. […]
Lc-2010c (Shimadzu Corp.) was used for LC; eluent A: 0.1% TFA and eluent B: 0.1% TFA/90% acetonitrile as the moving phase; Develosil-C30-UG5 (Nomura Chemical, 4.6 mm×150 mm) as the column at 40° C. […] Based on the analysis that the spectra from 220 nm to 330 nm were measured using SPD-10AV (Shimadzu Corp.), search was made for substances having two absorption maxima (230 nm and 280 nm) inherent to lignans. Under the conditions, the lignan of structural formula (Ia) was detected at approximately 11.6 minutes, the lignan of structural formula (Ib) at approximately 12.2 minutes, the lignan of structural formula (Ic) at approximately 13.8 minutes, and the lignan of structural formula (V) at approximately 9.8 minutes. […]

Experiment [2] deals with RengUGT14. As to the kind of experiment: glycosyl acceptor selectivity of recombinant RengUGT14 (standard enzyme reaction, HPLC analysis). It counts as biochemical, Forsythia koreana. As to conditions: 1 mM UDP-glucose, 100 μM glycosyl acceptor substrate, pH 7.5, 30° C., one hour; for transglycosylation activity (activity against the lignan of structural formula (Ia) made 100): relative activity as glycosyl acceptor substrate. On the procedure: To clarify the biochemical functions of the enzymes, the two enzymes were expressed in Escherichia coli. Using the plasmid for two RengUGT Escherichia coli expression obtained above, Escherichia coli BL21 (DE3) strain was transformed in a conventional manner. The resulting transformants were shake cultured in 4 ml of LB medium (10 g/l tryptone peptone, 5 g/l yeast extract, 1 g/l NaCl) containing 50 μg/ml of ampicillin at 37° C. overnight. When the cells reached the stationary phase, 4 ml of the culture broth was inoculated onto 80 ml of fresh medium of the same composition, followed by shake culture at 37° C. At the point when the cell turbidity (OD 600) reached approximately 0.5, IPTG in a final concentration of 0.5 mM was added to the cells, followed by shake culture at 18° C. for 20 hours. The following procedures were all carried out at 4° C. The transformants cultured were collected by centrifugation (5,000×g, 10 mins.) and suspended by adding 1 ml/g cell of Buffer S (20 mM HEPES buffer (pH 7.5), 20 mM imidazole and 14 mM […]. Subsequently, the suspension was ultrasonicated (15 secs×8 times) and then centrifuged (15,000×g, 15 mins.). The supernatant obtained was recovered as a crude enzyme solution. The crude enzyme solution was loaded onto His SpinTrap (GE Healthcare), which had been equilibrated with Buffer S, and centrifuged (70×g, 30 secs.). After washing with the buffer, the proteins bound to the column were eluted stepwise with 5 ml each of Buffer S containing 100 mM and 500 mM imidazole. In each of the eluted fractions, the buffer was replaced through a Microcon YM-30 (Amicon) by 20 mM HEPES buffer (pH 7.5)/14 mM β-mercapto ethanol (magnification of dialysis, ×1000). As a result of the SDS-PAGE analysis, in the fraction eluted with […], the protein was confirmed at approximately 50 KDa of the estimated molecular weight for the two RengUGTs. This fraction was used for the enzyme analysis (FIG. 2). Conditions for the standard enzyme reaction are as follows. […] Based on the analysis that the spectra from 220 nm to 330 nm were measured using SPD-10AV (Shimadzu Corp.), search was made for substances having two absorption maxima (230 nm and 280 nm) inherent to lignans. Under the conditions, the lignan of structural formula (Ia) was detected at approximately 11.6 minutes, the lignan of structural formula (Ib) at approximately 12.2 minutes, the lignan of structural formula (Ic) at approximately 13.8 minutes, and the lignan of structural formula (V) at approximately 9.8 minutes. The expression level of RengUGT14 recombinant protein was high in Escherichia coli (FIG. 2), and the glycosyl acceptor selectivity was evaluated using this enzyme. […]

For `COc1cc([C@H]2OC[C@H]3[C@@H]2CO[C@@H]3c2ccc(O)c(OC)c2)ccc1O` [structural formula (Ia)], in experiment [1], the “glucose transfer to the lignan by RengUGT13 (product peak at HPLC, monoglucoside by LC-MS)” value was “activity of transferring one molecule of glucose”. Also, in experiment [2], the “glucose transfer to the lignan by RengUGT14 (product peak at HPLC, monoglucoside by LC-MS)” value is “activity of transferring one molecule of glucose” and the “transglycosylation activity (activity against the lignan of structural formula (Ia) made 100)” value was 100. Turning to `COc1cc([C@H]2OC[C@H]3[C@@H]2CO[C@H]3c2ccc(O)c(OC)c2)ccc1O` [structural formula (Ib)], in experiment [2], the “transglycosylation activity (activity against the lignan of structural formula (Ia) made 100)” value is 112. Still for that read-out and setting: the same measure for `COc1cc([C@H]2OC[C@H]3[C@@H]2CO[C@H]3c2ccc(OC)c(OC)c2)ccc1O` [structural formula (Ic)]: 128.
